# From patent US10770169B2, “Method of providing a treatment to a subject based on a dynamic pathway map” (THE REGENTS OF THE UNIVERSITY OF CALIFORNIA, priority 2010, dated 2020)
# Assays:
# [1] = test system: luminal, basal, claudin-low and ERBB2AMP breast cancer cell lines; assay: Associations of clinically relevant subtypes and response (non-parametric ANOVA or t-test on GI50 ranks); type: cell-based, human
# How it was run: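 Significance was set at FDR p<0.20 after combining p-values across three test sets. Subtype–response associations came from rank-based non-parametric ANOVA or t-tests on GI50. For three-class comparisons, post-hoc tests of each group against the rest identified the most sensitive group, with FDR correction.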
# [2] = test system: panel of 55 breast cancer cell lines; assay: Cell growth inhibition assay (Cell Titer Glo, 72 h, 9 doses; GI50, TGI, LC50); type: cell-based, human; conditions: value is the negative log10 of mol/L
smiles,measurement,setting,value
CCNCCCCNCCCCNCCCCNCCCCNCC=CCNCCCCNCCCCNCCCCNCCCCNCC.Cl.Cl.Cl.Cl.Cl.Cl.Cl.Cl.Cl.Cl (stereo in doubt) [CGC-11144],association of response with ERBB2 amplification,[1],negatively associated with ERBB2 amplification
same,Subtype specificity,"[1]; Table 6, most sensitive subtype, FDR p<0.20",not ERBB2AMP
same,GI50,"[2]; 600MPE cell line, censored GI50 values",6.49
same,GI50,"[2]; AU565 cell line, censored GI50 values",6.31
same,GI50,"[2]; BT20 cell line, censored GI50 values",6.52
same,GI50,"[2]; BT474 cell line, censored GI50 values",6.02
same,GI50,"[2]; BT483 cell line, censored GI50 values",6.25
same,GI50,"[2]; BT549 cell line, censored GI50 values",6.65
same,GI50,"[2]; CAMA1 cell line, censored GI50 values",6.40
same,GI50,"[2]; HCC38 cell line, censored GI50 values",6.81
same,GI50,"[2]; HCC70 cell line, censored GI50 values",6.55
same,GI50,"[2]; HCC202 cell line, censored GI50 values",6.26
same,GI50,"[2]; HCC1143 cell line, censored GI50 values",6.88
same,GI50,"[2]; HCC1187 cell line, censored GI50 values",6.02
same,GI50,"[2]; HCC1395 cell line, censored GI50 values",6.20
same,GI50,"[2]; HCC1419 cell line, censored GI50 values",6.30
same,GI50,"[2]; HCC1428 cell line, censored GI50 values",6.33
same,GI50,"[2]; HCC1500 cell line, censored GI50 values",6.65
same,GI50,"[2]; HCC1806 cell line, censored GI50 values",6.71
same,GI50,"[2]; HCC1937 cell line, censored GI50 values",6.76
same,GI50,"[2]; HCC1954 cell line, censored GI50 values",6.56
same,GI50,"[2]; HCC2185 cell line, censored GI50 values",6.60
same,GI50,"[2]; HCC3153 cell line, censored GI50 values",6.72
same,GI50,"[2]; LY2 cell line, censored GI50 values",5.18
same,GI50,"[2]; MCF7 cell line, censored GI50 values",6.33
same,GI50,"[2]; MDAMB134VI cell line, censored GI50 values",6.38
same,GI50,"[2]; MDAMB157 cell line, censored GI50 values",6.96
same,GI50,"[2]; MDAMB175VII cell line, censored GI50 values",6.75
same,GI50,"[2]; MDAMB231 cell line, censored GI50 values",4.66
same,GI50,"[2]; MDAMB361 cell line, censored GI50 values",5.78
same,GI50,"[2]; MDAMB415 cell line, censored GI50 values",6.78
same,GI50,"[2]; MDAMB436 cell line, censored GI50 values",6.06
same,GI50,"[2]; MDAMB453 cell line, censored GI50 values",6.28
same,GI50,"[2]; MDAMB468 cell line, censored GI50 values",6.17
same,GI50,"[2]; SKBR3 cell line, censored GI50 values",5.30
same,GI50,"[2]; SUM149PT cell line, censored GI50 values",6.53
same,GI50,"[2]; SUM159PT cell line, censored GI50 values",6.60
same,GI50,"[2]; SUM185PE cell line, censored GI50 values",6.68
same,GI50,"[2]; SUM225CWN cell line, censored GI50 values",5.45
same,GI50,"[2]; SUM1315MO2 cell line, censored GI50 values",5.69
same,GI50,[2]; cell line 600MPE,6.49
same,GI50,[2]; cell line AU565,6.31
same,GI50,[2]; cell line BT20,6.52
same,GI50,[2]; cell line BT474,6.02
same,GI50,[2]; cell line BT483,6.25
same,GI50,[2]; cell line BT549,6.65
same,GI50,[2]; cell line CAMA1,6.40
same,GI50,[2]; cell line HCC38,6.81
same,GI50,[2]; cell line HCC70,6.55
same,GI50,[2]; cell line HCC202,6.26
same,GI50,[2]; cell line HCC1143,6.88
same,GI50,[2]; cell line HCC1187,6.02
same,GI50,[2]; cell line HCC1395,6.20
same,GI50,[2]; cell line HCC1419,6.30
same,GI50,[2]; cell line HCC1428,6.33
same,GI50,[2]; cell line HCC1500,6.65
same,GI50,[2]; cell line HCC1806,6.71
same,GI50,[2]; cell line HCC1937,6.76
same,GI50,[2]; cell line HCC1954,6.56
same,GI50,[2]; cell line HCC2185,6.60
same,GI50,[2]; cell line HCC3153,6.72
same,GI50,[2]; cell line LY2,5.18
same,GI50,[2]; cell line MCF7,6.33
same,GI50,[2]; cell line MDAMB134V,6.38
same,GI50,[2]; cell line MDAMB157,6.96
same,GI50,[2]; cell line MDAMB175V,6.75
same,GI50,[2]; cell line MDAMB231,4.66
same,GI50,[2]; cell line MDAMB361,5.78
same,GI50,[2]; cell line MDAMB415,6.78
same,GI50,[2]; cell line MDAMB436,6.06
same,GI50,[2]; cell line MDAMB453,6.28
same,GI50,[2]; cell line MDAMB468,6.17
same,GI50,[2]; cell line SKBR3,5.30
same,GI50,[2]; cell line SUM52PE,6.79
same,GI50,[2]; cell line SUM149PT,6.53
same,GI50,[2]; cell line SUM159PT,6.60
same,GI50,[2]; cell line SUM185PE,6.68
same,GI50,[2]; cell line SUM225CWN,5.45
same,GI50,[2]; cell line SUM1315MO,5.69
same,GI50,[2]; cell line T47D,6.96
same,GI50,[2]; cell line UACC812,6.78
same,GI50,[2]; cell line UACC893,6.60
same,GI50,[2]; cell line ZR751,6.48
